PMC6413125 (International Journal of Molecular Sciences, 2019)

Tests used:
Format in all cases: biochemical
[1] = molecular target: T1, Aβ21–40 (Homo sapiens, UniProt P05067); assay: ESI-MS adducts ([…] and […]); IC50 from ThT aggregation assay
T1 construct: gene APP

[2] = molecular target: T2, nucleophosmin 1 (NPM1_264–277) (Homo sapiens, UniProt P06748); assay: ESI-MS adducts; IC50 from ThT aggregation assay; CD
T2 construct: gene NPM1; helix H2 of C-terminal domain, residues 264–277 ([…])

[3] = molecular target: T3, Yeast Prion Protein Sup35p (Sup35p7–13) (Saccharomyces cerevisiae, UniProt P05453)
T3 construct: gene SUP35

T1 sequence (P05067 692-711): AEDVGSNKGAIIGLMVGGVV

## CSC1=[S+][Pt-2]([Cl])([S+](C)(C)=O)[O]C(c2cccc(O)c2)=C1 (stereo not drawn) [compound 1, 1]
[1]
  IC50: 19.9 ± 1.6 µM
[2]
  IC50: 62.3 ± 1.3 µM
[3]
  IC50: 55 ± 1.12 µM
